Calls of active or inactive are those of the source. The calls are words filed in the database; no cut-off is given here.
Tests used:
Homo sapiens = species on record: Homo sapiens; assay: Selectivity index, ratio of IC50 for recombinant human MAO-A expressed in Sf9 cells to IC50 for recombinant human MAO-B expressed in Sf9 cells
Rattus norvegicus = assay: Neuroprotective activity against galantamine-induced Sprague-Dawley rat model of Parkinson's disease assessed as reduction in galantamine-induced tremulous jaw movements at 0.156 to 1.25 mg/kg, ip preincubated with galantamine for 15 mins followed by compound addition and measured after 15 mins; assay type: functional, organism-based; details: dose 0.156-1.25 mg/kg
Cytochrome P450 3A5 = Cytochrome P450 3A5 (Homo sapiens, UniProt P20815); assay: Inhibition of human CYP3A5 preincubated for 10 min followed by addition of NADPH and measured after 5 min by LC-MS/MS analysis; assay type: ADME
Cytochrome P450 3A5, sequence (P20815 whole entry): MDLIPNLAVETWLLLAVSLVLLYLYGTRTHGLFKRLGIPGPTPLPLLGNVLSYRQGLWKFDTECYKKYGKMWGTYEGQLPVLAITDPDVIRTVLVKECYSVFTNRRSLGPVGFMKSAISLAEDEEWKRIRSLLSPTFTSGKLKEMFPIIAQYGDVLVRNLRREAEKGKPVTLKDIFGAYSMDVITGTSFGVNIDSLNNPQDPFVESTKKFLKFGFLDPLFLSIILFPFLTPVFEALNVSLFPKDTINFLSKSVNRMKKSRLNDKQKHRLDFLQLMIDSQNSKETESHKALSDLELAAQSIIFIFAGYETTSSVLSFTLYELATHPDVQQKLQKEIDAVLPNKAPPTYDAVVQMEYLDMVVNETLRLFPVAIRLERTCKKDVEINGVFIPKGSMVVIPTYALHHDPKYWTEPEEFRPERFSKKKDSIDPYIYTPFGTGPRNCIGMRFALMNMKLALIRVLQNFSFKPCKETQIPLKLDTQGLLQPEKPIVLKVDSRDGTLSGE

[1] = Apparent permeability in MDCK-MDR1 cells from apical to basal side at 10 uM; assay type: ADME, cell-based, Canis lupus familiaris; details: dog
[2] = target: 5-hydroxytryptamine receptor 2B (Homo sapiens) (UniProt P41595); assay: Binding affinity to 5-HT2B receptor (unknown origin) expressed in CHO-K1 cells; assay type: cell-based; details: concentration not given here
5-hydroxytryptamine receptor 2B (Homo sapiens), sequence (P41595 whole entry): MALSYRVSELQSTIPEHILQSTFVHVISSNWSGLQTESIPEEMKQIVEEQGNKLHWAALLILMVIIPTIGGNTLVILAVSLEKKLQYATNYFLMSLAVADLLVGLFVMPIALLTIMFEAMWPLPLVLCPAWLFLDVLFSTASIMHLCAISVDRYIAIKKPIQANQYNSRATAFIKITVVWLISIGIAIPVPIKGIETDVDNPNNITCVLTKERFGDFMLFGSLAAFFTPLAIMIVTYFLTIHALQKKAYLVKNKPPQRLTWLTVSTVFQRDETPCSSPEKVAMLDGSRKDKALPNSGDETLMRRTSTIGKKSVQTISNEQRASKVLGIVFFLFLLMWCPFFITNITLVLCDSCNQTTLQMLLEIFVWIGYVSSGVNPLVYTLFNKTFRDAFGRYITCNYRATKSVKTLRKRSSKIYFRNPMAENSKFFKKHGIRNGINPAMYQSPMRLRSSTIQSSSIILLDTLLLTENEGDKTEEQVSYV

Cytochrome P450 2B6 = target: T1, Cytochrome P450 2B6 (Homo sapiens, UniProt P20813); assay: Inhibition of human CYP2B6 preincubated for 10 min followed by addition of NADPH and measured after 10 min by LC-MS/MS analysis; assay type: ADME
T1 sequence (P20813 whole entry): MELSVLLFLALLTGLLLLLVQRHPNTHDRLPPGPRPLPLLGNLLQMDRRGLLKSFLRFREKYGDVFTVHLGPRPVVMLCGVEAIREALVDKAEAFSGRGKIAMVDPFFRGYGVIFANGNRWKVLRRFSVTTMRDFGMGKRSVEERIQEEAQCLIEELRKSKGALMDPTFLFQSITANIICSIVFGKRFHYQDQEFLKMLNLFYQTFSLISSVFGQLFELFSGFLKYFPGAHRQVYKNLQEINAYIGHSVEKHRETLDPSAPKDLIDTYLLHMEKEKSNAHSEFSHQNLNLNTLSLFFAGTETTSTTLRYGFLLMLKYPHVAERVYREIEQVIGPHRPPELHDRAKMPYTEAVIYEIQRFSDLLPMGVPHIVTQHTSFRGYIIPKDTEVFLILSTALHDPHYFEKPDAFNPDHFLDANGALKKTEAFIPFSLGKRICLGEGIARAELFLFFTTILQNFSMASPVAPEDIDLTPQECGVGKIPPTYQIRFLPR

[3] = Metabolic stability in monkey liver microsome assessed as half life at 1 uM measured after 60 min in presence of NADPH by LC-MS/MS analysis; assay type: ADME, Macaca mulatta; details: rhesus monkey, liver microsomes
[4] = Plasma protein binding in mouse assessed as unbound fraction at 1 uM measured after 5 hrs by LC-MS/MS analysis; assay type: ADME, cell-free
[5] = AUC (0-t) in Cynomolgus monkey rat at 5 mg/kg, po measured upto 24 hrs; assay type: ADME, organism-based, Macaca fascicularis; parameters: route oral, dose 5 mg/kg, time <=24; details: in vivo
[6] = Cmax in Cynomolgus monkey rat at 5 mg/kg, po measured upto 24 hrs; assay type: ADME, organism-based, Macaca fascicularis; parameters: route oral, dose 5 mg/kg, time <=24; details: in vivo
[7] = Plasma protein binding in human assessed as unbound fraction at 1 uM measured after 5 hrs by LC-MS/MS analysis; assay type: ADME, cell-free
[8] = Plasma protein binding in monkey assessed as unbound fraction at 1 uM measured after 5 hrs by LC-MS/MS analysis; assay type: ADME, cell-free, Macaca mulatta; details: rhesus monkey
[9] = Metabolic stability in human liver microsome assessed as half life at 1 uM measured after 60 min in presence of NADPH by LC-MS/MS analysis; assay type: ADME; details: liver microsomes
Mus musculus = assay: In vivo inhibition of MAO-B in ICR mouse brain at 0.4 to 2 mg/kg, ip administered once a week for 21 days by fluorescence based monoamine oxidase assay; assay type: functional, organism-based; details: dose 0.4-2 mg/kg, time 21.0 day
[10] = Clearance in Cynomolgus monkey rat at 1 mg/kg, iv measured upto 24 hrs; assay type: ADME, organism-based, Macaca fascicularis; details: in vivo
Cytochrome P450 3A4 = Cytochrome P450 3A4 (Homo sapiens, UniProt P08684); assay: Inhibition of human CYP3A4 preincubated for 10 min followed by addition of NADPH and measured after 5 min by LC-MS/MS analysis; assay type: ADME
Cytochrome P450 3A4, sequence (P08684 whole entry): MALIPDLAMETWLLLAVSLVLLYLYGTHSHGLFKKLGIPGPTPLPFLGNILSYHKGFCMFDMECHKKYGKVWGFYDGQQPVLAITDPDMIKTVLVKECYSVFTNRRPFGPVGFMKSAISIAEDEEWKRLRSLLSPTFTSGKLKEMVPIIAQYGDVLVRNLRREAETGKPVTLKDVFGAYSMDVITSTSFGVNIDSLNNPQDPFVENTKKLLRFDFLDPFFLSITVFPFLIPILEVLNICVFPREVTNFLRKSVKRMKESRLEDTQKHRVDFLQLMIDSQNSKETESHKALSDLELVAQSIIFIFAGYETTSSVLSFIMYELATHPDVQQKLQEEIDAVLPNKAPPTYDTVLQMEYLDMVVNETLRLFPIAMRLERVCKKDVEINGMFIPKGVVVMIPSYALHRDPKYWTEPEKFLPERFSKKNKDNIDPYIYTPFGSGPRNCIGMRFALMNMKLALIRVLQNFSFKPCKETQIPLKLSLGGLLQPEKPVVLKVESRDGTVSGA

With `NC(=O)[C@@H]1C[C@H](F)CN1Cc1ccc(OCc2cccc(F)c2)cc1` the Ratio IC50 (Homo sapiens) was 2440, the Activity (Rattus norvegicus) was “Active” and the IC50 (Cytochrome P450 3A5) was > 29 µM. The Papp A→B at 10 µM [1] was 28.9 ×10⁻⁶ cm/s, the inhibition [2] was 57% and the IC50 (Cytochrome P450 2B6) was > 29 µM. It also gave a half-life at 1 µM [3] of 0.616 h, a fraction unbound at 5 h, 1 µM [4] of 0.0516 and an AUC(0-t) at 24 h [5] of 11300 ng·h/mL. For the same compound, the Cmax [6] was 2280 ng/mL, the fraction unbound at 5 h, 1 µM [7] was 0.0363 and the fraction unbound at 5 h, 1 µM [8] was 0.0407. The half-life at 1 µM [9] was 2.23 h, the inhibition (Mus musculus) was “Active” and the clearance [10] was 7.54 mL/min/kg. For the same compound, the IC50 (Cytochrome P450 3A4) was > 29 µM.
